Source: US11672802B2, “Induction of immune tolerance by using methotrexate” (Genzyme Corporation, priority 2011, dated 2023)

What was measured:
[1] = test system: splenic B and T cell subsets; test: Flow cytometry of splenic B and T cell subsets after rhGAA and methotrexate; format: in vivo, mice
Description: 20 mg/kg of Myozyme® (Genzyme Corporation) was given by tail vein injection once or for 2-6 weekly doses, commencing with the first methotrexate dose. Animals were sacrificed weekly or daily after initiation of treatment. Spleen, mesenteric, and inguinal lymph nodes were collected for flow cytometric analysis of T and B cell subsets and sera was collected for ELISA assays. Spleens were processed between glass slides and red blood cells (RBC) was lysed with lysing buffer purchased from BD Biosciences (catalog#555899) according to the manufacturer's instructions. Lymph nodes were processed between glass slides and washed with phosphate buffered saline (PBS) containing 2% fetal calf serum (FCS). Cells were resuspended in 200 μL of PBS containing 4% fetal bovine serum and 25 μg/mL of total mouse IgG and blocked for 30 minutes at 4° C. Approximately 3 million spleens cells and 1 million lymph node cells were stained with different antibody cocktails and analyzed with a high through put sampler (HTS) on a Becton Dickinson CANTOII flow cytometer. At least 100,000 cell events were acquired within the lymphocyte gate. Anti-mouse antibody cocktails consisted of PE-CD21/35 catalog #552957, FITC-catalog #553138, PE-CD138 catalog #553714, PE-PE-Cy7-CD4 catalog #552775, FITC-CD3e catalog #553062, APC-CD11b catalog #553312, PE-Cy7-IgM catalog #552867, APC-Cy7-CD8 catalog #557654, PE-CD273 (PD-L2) catalog #557796, APC-CD138 catalog #558626, PE-Cy7-CD11b catalog #552850, PE-CD93 (early B lineage) catalog #558039, APC-CD69 catalog #560689, Pe-Cy7-CD24 catalog #560536, FITC-CD1d catalog #553845, APC-CD5 catalog #550035, and Percp-Cy5-7AAD catalog #559925, all purchased from BD Pharmingen. FITC-FoxP3 intracellular staining kit was purchased from eBioscience. Pacific Blue (PB)-CD25 catalog #102022, PB-CD23 catalog #101616 and PB-CD86 catalog #105022 were purchased from BioLegend. Analysis of lymphocyte subsets was performed with FCS express version 3 software provided by De Novo Software. Percentages were generated with the batch processing option and absolute numbers were calculated according to the cell counts obtained. Spleen and lymph node cell counts were obtained with a Beckman Coulter Vi-cell XR cell viability analyzer according to the manufacturer's instructions.
C57BL/6 (Jackson Laboratories) or E4GAAKO (Charles River) mice 8-12 weeks old were given 5 mg/kg of methotrexate (Calbiochem catalog #454125) by intraperitoneal injection for 1 cycle (3 consecutive daily doses) commencing with treatment with 20 mg/kg of rhGAA. For the 1D11 studies, animals were treated with intraperitoneal injections of 5 mg/kg of either 1D11 or 13C4 (Genzyme Corporation) 3 time per week, every other day, commencing with rhGAA and methotrexate treatment. Animals were sacrificed on day 6 or 7 post rhGAA initiation depending on the mouse strain. Spleens were prepared in single cell suspension and loaded onto the RoboSep (STEMCELL technologies) instrument according to the manufacturer's instructions and subjected to B cell negative selection. Purified B cells were seeded at 500,000 cells per well in 96 well round bottom plates (Costar catalog #3799) and either incubated with no stimulation or with 10 μg/mL of LPS (Sigma catalog #L5014) for 48 hours at 37° C. All wells received Monensin (BD Bioscience catalog #554724) according to the manufacturer's instructions. Cells were allowed to incubate for at least 4 hours at 37° C. Samples were transferred to V bottom wells (USA Scientific catalog #651201) and spun at 1200 rpm for 5 minutes at 4° C. Cells were resuspended in 200 μL of PBS containing 4% fetal bovine serum and 25 μg/ml of total mouse IgG and blocked for 30 minutes at 4° C.

[2] = test system: anti-rhGAA antibody titers; test: Adoptive transfer of splenic B cells from tolerized mice; format: in vivo, C57BL/6 mice; conditions: donors treated with Myozyme and a single cycle of methotrexate
Description: C57BL/6 mice were obtained from Jackson Laboratories and were housed under specific pathogen free conditions. Control mice were given a single intravenous injection of rhGAA at 20 mg/kg. Tolerized mice were given a single intravenous injection of rhGAA at 20 mg/kg, in addition to three daily consecutive methotrexate intraperitoneal injections of 0.5 mg. Spleens were harvested on day six after the initial rhGAA injection, from both donor groups, and processed into pooled single cell suspensions. Cells were washed and filtered through a […]. Cells were then enriched for B cells using a StemCell Technologies RoboSep cell separation system, and resuspended to allow for a 200 μl intravenous injection. Tolerized and non-tolerized recipient groups received either a high cell 10×10^6 or a low cell 5×10^6 concentration via intravenous injections. Control groups were given rhGAA only, or rhGAA and methotrexate (single cycle of three consecutive daily MTX injections). All groups received weekly intravenous rhGAA 20 mg/kg injections, and were retro-orbitally bled biweekly for 16 weeks, into BD Vacutainer serum separator tubes. Serum was removed and stored below −20° C. until used for ELISA. Anti-rhGAA antibody titers were determined using ELISA, read on a SpectraMax M2, and calculated using Softmax to extrapolate titer value. […]

[3] = Circulating mATG levels (mATG-specific IgG ELISA); format: in vivo, mice
Description: Mouse serum was determined by ELISA. […] Following blocking with 0.5% BSA (high purity), standard controls and serum samples were diluted as necessary and added in duplicate to the wells of the coated plates and incubated at 36-38° C. for 1 hour with gentle shaking. […] Final concentrations were interpolated off the standard curve. It was predetermined that the measurement of mATG-specific IgG by this method were only modestly affected by titers of anti-mATG IgG that were greater than 218,000.

[4] = Myozyme and methotrexate vs Myozyme alone

## CN(Cc1cnc2nc(N)nc(N)c2n1)c1ccc(C(=O)N[C@@H](CCC(=O)O)C(=O)O)cc1 [methotrexate, Methotrexate]
[1]; [4]
  IL-10, TGFbeta and FoxP3 mean fluorescence intensity in multiple cell subsets: statistically significant increases
  number of B10 B cells expressing IL-10: increased
[1]; following methotrexate treatment with rhGAA
  activated B cell subsets (marginal zone, follicular, transitional 2 and 3): significantly increased
[1]; methotrexate and Myozyme
  numbers of FoxP3+ B cells: increase
[1]; methotrexate vs Myozyme alone
  absolute cell numbers of IL-10, TGF-beta and FoxP3 expressing transitional 2, transitional 3 and follicular B cells: increased
[1]; methotrexate-tolerized animals
  numbers of TGF-beta-expressing B10 B cells: increased
[1]; seven and eight days following Myozyme treatment
  B10 regulatory B cell population: significant increases
[1]; two cycles of Myozyme and methotrexate
  activated T helper, T cytotoxic and T regulatory cell populations: largely unchanged
[2]
  transfer of immune tolerance to Myozyme in naive hosts by total splenic B cells: could transfer immune tolerance
[3]; heart transplant model, seven days after first mATG administration, mATG alone or with methotrexate
  circulating mATG levels: significantly higher
[3]; months 3 and 5 of monthly mATG, alone or with single cycle methotrexate 5 mg/kg x3
  levels of circulating mATG: measurable levels
